A compilation of properties of binary mixtures (doi:10.1021/acs.jpcc.8b05193)

Assay: xn = mol fraction of the nth substance listed
Details: 100 kPa

O=S(=O)([N-]S(=O)(=O)C(F)(F)F)C(F)(F)F.[Li+] + O
Details | electrical conductivity [S/m]
260.73 K, x2 = 0.7857 | 0.407
261.98 K, x2 = 0.8065 | 0.617
262.18 K, x2 = 0.8855 | 1.33
262.4 K, x2 = 0.9148 | 1.46
262.6 K, x2 = 0.8271 | 0.808
262.82 K, x2 = 0.8495 | 1.04
265.92 K, x2 = 0.7857 | 0.55
266.56 K, x2 = 0.8065 | 0.767
266.96 K, x2 = 0.8495 | 1.25
266.96 K, x2 = 0.9761 | 1.36
267.38 K, x2 = 0.8855 | 1.66
267.6 K, x2 = 0.9148 | 1.86
270.7 K, x2 = 0.7857 | 0.684
271.54 K, x2 = 0.8065 | 0.966
271.96 K, x2 = 0.9761 | 1.73
272.15 K, x2 = 0.8271 | 1.21
272.6 K, x2 = 0.9148 | 2.27
273.4 K, x2 = 0.7538 | 0.461
273.4 K, x2 = 0.8495 | 1.62
275.7 K, x2 = 0.7857 | 0.843
277.15 K, x1 = 0.0039 | 0.623
277.35 K, x2 = 0.8065 | 1.16
277.35 K, x2 = 0.8855 | 2.54
277.35 K, x2 = 0.9761 | 2.06
277.55 K, x2 = 0.8271 | 1.51
277.97 K, x2 = 0.7538 | 0.579
277.97 K, x2 = 0.9148 | 2.88
278.19 K, x2 = 0.8495 | 1.94
280.67 K, x2 = 0.7857 | 1.06
281.51 K, x2 = 0.8271 | 1.8
281.93 K, x2 = 0.8855 | 2.94
282.13 K, x2 = 0.9761 | 2.49
282.32 K, x1 = 0.0039 | 0.736
282.32 K, x2 = 0.8065 | 1.43
282.55 K, x2 = 0.9148 | 3.3
282.74 K, x2 = 0.8495 | 2.22
285.45 K, x2 = 0.7857 | 1.23
286.71 K, x2 = 0.9148 | 3.94
286.9 K, x2 = 0.8271 | 2.11
287.1 K, x2 = 0.8065 | 1.66
287.32 K, x2 = 0.8855 | 3.47
287.52 K, x2 = 0.9761 | 2.94
287.94 K, x2 = 0.8495 | 2.65
291.06 K, x2 = 0.7857 | 1.46
291.46 K, x2 = 0.8271 | 2.41
291.88 K, x2 = 0.8855 | 3.98
292.1 K, x2 = 0.9761 | 3.33
292.52 K, x2 = 0.7538 | 1.02
292.71 K, x2 = 0.9148 | 4.51
293.13 K, x2 = 0.8495 | 3.17
295.84 K, x2 = 0.7857 | 1.71
296.88 K, x2 = 0.6988 | 0.538
296.88 K, x2 = 0.9761 | 3.81
297.29 K, x2 = 0.8065 | 2.22
297.29 K, x2 = 0.8855 | 4.65
297.49 K, x2 = 0.7538 | 1.19
297.49 K, x2 = 0.8495 | 3.51
297.49 K, x2 = 0.9148 | 5.33
298.11 K, x1 = 0.0039 | 1.07
300.4 K, x2 = 0.7857 | 1.96
302.47 K, x1 = 0.0039 | 1.21
302.47 K, x2 = 0.6988 | 0.636
302.47 K, x2 = 0.8855 | 5.16
302.69 K, x2 = 0.9761 | 4.37
303.11 K, x2 = 0.8065 | 2.62
305.59 K, x2 = 0.7857 | 2.24
307.05 K, x2 = 0.8855 | 5.67
307.05 K, x2 = 0.9148 | 6.42
307.24 K, x2 = 0.6988 | 0.767
307.46 K, x1 = 0.0039 | 1.35
307.46 K, x2 = 0.8271 | 3.62
307.46 K, x2 = 0.8495 | 4.46
310.79 K, x2 = 0.7857 | 2.57
312.02 K, x2 = 0.9761 | 5.38
312.24 K, x2 = 0.7538 | 1.8
312.24 K, x2 = 0.8271 | 4.02
312.24 K, x2 = 0.8495 | 4.95
312.66 K, x1 = 0.0039 | 1.51
312.66 K, x2 = 0.8855 | 6.42
312.66 K, x2 = 0.9148 | 7.28
313.05 K, x2 = 0.6601 | 0.528
316.6 K, x1 = 0.0039 | 1.62
316.8 K, x2 = 0.8855 | 7.06
317.02 K, x2 = 0.8065 | 3.59
317.21 K, x2 = 0.9761 | 5.97
317.41 K, x2 = 0.9148 | 8.07
317.63 K, x2 = 0.6601 | 0.604
317.83 K, x2 = 0.7538 | 2.06
321.79 K, x2 = 0.8065 | 3.94
321.79 K, x2 = 0.8855 | 7.59
321.99 K, x1 = 0.0039 | 1.78
322.19 K, x2 = 0.8271 | 4.85
322.41 K, x2 = 0.9148 | 8.69
322.61 K, x2 = 0.8495 | 6.03
322.83 K, x2 = 0.6601 | 0.692
323.03 K, x2 = 0.6988 | 1.18
326.35 K, x2 = 0.7857 | 3.51
326.77 K, x1 = 0.0039 | 1.92
326.97 K, x2 = 0.8855 | 8.33
327.19 K, x2 = 0.7538 | 2.52
327.19 K, x2 = 0.9148 | 9.45
327.38 K, x2 = 0.9761 | 7.13
327.8 K, x2 = 0.8495 | 6.49
328.02 K, x2 = 0.8065 | 4.56
328.64 K, x2 = 0.6601 | 0.833
332.16 K, x1 = 0.0039 | 2.08
332.58 K, x2 = 0.6988 | 1.52
332.58 K, x2 = 0.9148 | 10
332.78 K, x2 = 0.9761 | 7.67
333.42 K, x2 = 0.6601 | 0.945
336.94 K, x2 = 0.8271 | 6.35
337.16 K, x1 = 0.0039 | 2.2
337.36 K, x2 = 0.8065 | 5.27
337.55 K, x2 = 0.8495 | 7.59
337.55 K, x2 = 0.9148 | 10.7
337.78 K, x2 = 0.9761 | 8.25
337.97 K, x2 = 0.7538 | 3.13
338.19 K, x2 = 0.6601 | 1.05
338.19 K, x2 = 0.6988 | 1.73
342.33 K, x2 = 0.8495 | 8.16
342.33 K, x2 = 0.9148 | 11.6
342.55 K, x2 = 0.6988 | 1.88
342.55 K, x2 = 0.8855 | 10.4
342.75 K, x2 = 0.9761 | 8.87
345.65 K, x2 = 0.7857 | 4.95
347.11 K, x2 = 0.8855 | 11
347.33 K, x2 = 0.6601 | 1.35
347.33 K, x2 = 0.8065 | 6.03
347.33 K, x2 = 0.8271 | 7.51
347.75 K, x2 = 0.9148 | 12.5
347.94 K, x2 = 0.7538 | 3.73
350.43 K, x2 = 0.7857 | 5.27
352.11 K, x2 = 0.8495 | 9.06
352.3 K, x1 = 0.0039 | 2.65
352.52 K, x2 = 0.9148 | 13
352.72 K, x2 = 0.8271 | 7.91
352.72 K, x2 = 0.9761 | 9.74
352.92 K, x2 = 0.6601 | 1.48
353.14 K, x2 = 0.6988 | 2.34
353.34 K, x2 = 0.7538 | 4.02
356.66 K, x2 = 0.8065 | 6.91
356.88 K, x2 = 0.6988 | 2.49
357.08 K, x2 = 0.9761 | 10.3
357.3 K, x2 = 0.8271 | 8.33
357.3 K, x2 = 0.8495 | 9.74
357.5 K, x1 = 0.0039 | 2.85
357.7 K, x2 = 0.6601 | 1.64
357.92 K, x2 = 0.7538 | 4.32
359.79 K, x2 = 0.7857 | 6.03
360.82 K, x2 = 0.8065 | 7.28
360.82 K, x2 = 0.9761 | 10.7
361.66 K, x2 = 0.8495 | 10.3
361.66 K, x2 = 0.8855 | 13.2
361.86 K, x1 = 0.0039 | 3.04
362.05 K, x2 = 0.6601 | 1.82
362.05 K, x2 = 0.8271 | 8.96
362.47 K, x2 = 0.6988 | 2.76
363.11 K, x2 = 0.9148 | 14.5
363.31 K, x2 = 0.7538 | 4.7
